From patent US5424456A, “N-arylalkylderivatives of 2-aminomethyl-2,3-dihydro-1,4-benzodioxine and the process of preparation thereof” (Vyzkumny Ustav Pro Farmacii A Biochemii s.p., priority 1991, dated 1995)
Read-outs that look alike come from different tables or passages of the source.

Legend:
α-adrenergic [1] = test: α-adrenergic blocking activity, postdecapitation muscular contractions in rats; format: in vivo, rat; settings: i.v., 4.2 g/kg (so in the source), 30 minutes prior to decapitation
Description: b) The α-adrenergic blocking activity of compounds VUFB 17951 and VUFB 17959 was also shown in the test of influencing the postdecapitation muscular contractions in rats. The test compounds were administered intravenously in the dose of 4.6 mg/kg for VUFB 17951 and […] for VUFB 17959.

[2] = system: urinary bladder sphincter; test: Effect on the opening pressure of the urinary bladder sphincter; format: in vivo, rat; settings: rats, compared with prazosin or terazosin
blood pressure = test: Hypotensive activity, pentobarbital anaesthesized rabbits; format: in vivo, rabbit
Text: a) The blood pressure of pentobarbital anaesthesized rabbits was registered invasively in arteria femoralis. The average decrease in systolic (SBP) and diastolic (DBP) blood pressure expressed in per cents of the starting blood pressure level after intravenous and oral administration is shown in Tables 3 and 4.

calcium channel = biological target: T1, calcium channel (Rattus norvegicus, UniProt P22002); test: Calcium channel blocking activity, K+ depolarization-induced contraction of helically cut rat aortic strip; settings: Krebs-Henselheit solution, 37° C., cumulative doses, read-out: IC50 (50% decrease of contraction of the aortic strip)
T1 construct: helically cut rat aortic strip; from tissue; host or cells: rat aorta (helically cut strip)
T1 sequence (P22002 whole entry): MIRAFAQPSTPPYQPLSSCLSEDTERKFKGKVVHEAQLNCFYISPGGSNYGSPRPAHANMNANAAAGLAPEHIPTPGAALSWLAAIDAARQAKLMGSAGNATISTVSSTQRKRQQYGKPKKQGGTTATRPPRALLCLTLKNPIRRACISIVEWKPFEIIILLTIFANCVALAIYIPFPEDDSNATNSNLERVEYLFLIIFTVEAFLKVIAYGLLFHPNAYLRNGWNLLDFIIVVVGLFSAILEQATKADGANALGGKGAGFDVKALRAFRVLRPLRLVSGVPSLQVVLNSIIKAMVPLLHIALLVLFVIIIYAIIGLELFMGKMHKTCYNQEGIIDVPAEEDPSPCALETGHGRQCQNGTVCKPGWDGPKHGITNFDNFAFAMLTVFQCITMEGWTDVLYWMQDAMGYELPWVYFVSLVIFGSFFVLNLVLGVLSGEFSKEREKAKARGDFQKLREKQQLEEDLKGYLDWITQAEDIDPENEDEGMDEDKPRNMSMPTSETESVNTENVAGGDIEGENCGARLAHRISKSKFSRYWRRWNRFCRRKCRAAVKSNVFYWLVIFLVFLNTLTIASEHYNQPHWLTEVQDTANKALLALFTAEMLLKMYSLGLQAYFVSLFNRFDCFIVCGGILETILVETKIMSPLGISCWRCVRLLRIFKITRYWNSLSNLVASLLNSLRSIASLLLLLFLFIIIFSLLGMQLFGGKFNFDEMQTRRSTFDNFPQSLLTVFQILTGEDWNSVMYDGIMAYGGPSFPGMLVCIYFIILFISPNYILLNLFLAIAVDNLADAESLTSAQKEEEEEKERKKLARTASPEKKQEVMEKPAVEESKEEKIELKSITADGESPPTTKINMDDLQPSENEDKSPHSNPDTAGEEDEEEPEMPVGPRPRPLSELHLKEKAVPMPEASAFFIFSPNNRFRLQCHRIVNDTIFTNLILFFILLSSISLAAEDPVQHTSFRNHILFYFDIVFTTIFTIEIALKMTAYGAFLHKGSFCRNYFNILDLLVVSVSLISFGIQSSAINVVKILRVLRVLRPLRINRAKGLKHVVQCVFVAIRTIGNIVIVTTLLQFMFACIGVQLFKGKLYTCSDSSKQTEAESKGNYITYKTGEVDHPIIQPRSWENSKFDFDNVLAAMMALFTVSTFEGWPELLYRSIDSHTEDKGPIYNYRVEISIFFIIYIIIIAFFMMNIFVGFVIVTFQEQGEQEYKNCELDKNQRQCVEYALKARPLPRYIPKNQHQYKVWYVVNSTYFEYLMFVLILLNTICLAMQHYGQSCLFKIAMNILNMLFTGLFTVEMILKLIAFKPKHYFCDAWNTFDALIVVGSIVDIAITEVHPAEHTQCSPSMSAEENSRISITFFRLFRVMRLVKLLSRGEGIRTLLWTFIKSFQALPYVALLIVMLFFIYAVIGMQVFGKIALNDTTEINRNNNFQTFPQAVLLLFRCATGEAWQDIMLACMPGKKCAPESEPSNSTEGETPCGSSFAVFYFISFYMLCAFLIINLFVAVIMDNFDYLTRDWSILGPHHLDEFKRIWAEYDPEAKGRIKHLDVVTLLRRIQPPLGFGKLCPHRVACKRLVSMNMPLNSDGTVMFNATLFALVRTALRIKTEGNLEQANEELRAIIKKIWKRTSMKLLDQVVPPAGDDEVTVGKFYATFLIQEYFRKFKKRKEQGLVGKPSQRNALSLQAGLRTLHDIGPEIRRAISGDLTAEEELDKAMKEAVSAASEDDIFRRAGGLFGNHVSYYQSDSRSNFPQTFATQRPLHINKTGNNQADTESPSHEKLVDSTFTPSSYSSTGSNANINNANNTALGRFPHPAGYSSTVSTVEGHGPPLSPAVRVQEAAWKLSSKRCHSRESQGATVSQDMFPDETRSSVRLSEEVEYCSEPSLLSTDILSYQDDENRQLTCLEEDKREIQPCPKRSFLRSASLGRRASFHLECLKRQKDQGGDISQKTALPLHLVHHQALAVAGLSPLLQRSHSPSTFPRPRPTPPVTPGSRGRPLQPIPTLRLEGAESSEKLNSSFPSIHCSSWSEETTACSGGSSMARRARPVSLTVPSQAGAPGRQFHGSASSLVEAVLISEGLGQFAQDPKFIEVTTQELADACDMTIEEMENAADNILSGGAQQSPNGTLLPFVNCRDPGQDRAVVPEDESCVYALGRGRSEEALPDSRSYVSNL
T1 sequence (P54290 25-1091 partner): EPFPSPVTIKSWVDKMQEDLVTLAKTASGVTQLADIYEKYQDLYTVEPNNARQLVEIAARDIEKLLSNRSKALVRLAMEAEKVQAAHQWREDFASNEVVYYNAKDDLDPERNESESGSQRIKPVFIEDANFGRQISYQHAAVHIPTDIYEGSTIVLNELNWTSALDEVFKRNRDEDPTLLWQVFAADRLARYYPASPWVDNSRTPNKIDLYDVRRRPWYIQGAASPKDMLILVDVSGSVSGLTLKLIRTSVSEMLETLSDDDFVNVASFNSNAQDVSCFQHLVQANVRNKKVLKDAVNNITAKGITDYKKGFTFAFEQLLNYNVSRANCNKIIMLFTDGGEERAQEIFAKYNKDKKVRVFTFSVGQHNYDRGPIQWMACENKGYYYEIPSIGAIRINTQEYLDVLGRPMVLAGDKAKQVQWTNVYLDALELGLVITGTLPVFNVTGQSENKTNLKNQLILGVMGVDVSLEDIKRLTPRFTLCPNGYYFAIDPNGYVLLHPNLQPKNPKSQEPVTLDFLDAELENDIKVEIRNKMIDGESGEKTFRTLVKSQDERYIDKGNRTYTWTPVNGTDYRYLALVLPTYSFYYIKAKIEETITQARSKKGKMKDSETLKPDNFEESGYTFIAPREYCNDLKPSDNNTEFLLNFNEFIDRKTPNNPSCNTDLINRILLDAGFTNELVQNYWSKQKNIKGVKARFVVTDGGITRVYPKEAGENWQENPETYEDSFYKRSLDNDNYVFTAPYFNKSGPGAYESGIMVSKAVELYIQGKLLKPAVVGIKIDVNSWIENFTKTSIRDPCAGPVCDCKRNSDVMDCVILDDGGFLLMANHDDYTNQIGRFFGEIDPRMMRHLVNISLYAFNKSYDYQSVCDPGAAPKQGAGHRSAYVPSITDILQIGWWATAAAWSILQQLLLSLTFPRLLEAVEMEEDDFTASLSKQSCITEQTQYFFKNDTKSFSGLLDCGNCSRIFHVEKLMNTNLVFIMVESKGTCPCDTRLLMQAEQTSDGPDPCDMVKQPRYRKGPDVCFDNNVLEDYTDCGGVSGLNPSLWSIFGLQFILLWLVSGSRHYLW
Description: The calcium channel blocking activity of the compounds was tested using a helically cut rat aortic strip in Krebs-Henselheit solution at 37° C., bubbled with a mixture of 95% O2 and 5% CO2. The isometrically registered contractions were induced by K^(+). depolarization. The test compounds were applied in a cumulative doses and the vasodilating activity thereof was expressed in calculated concentration of the test compound, causing 50% decrease of contraction of the aortic strip (IC50).

α-adrenergic [3] = biological target: T2, α-adrenergic (Rattus norvegicus, UniProt P23944); test: α-adrenergic blocking activity, norepinephrine-induced contraction of helically cut rat aortic strip; settings: 37° C., cumulative doses, read-out: IC50 (concentration causing 50% relaxation)
T2 construct: helically cut rat aortic strip; from tissue; host or cells: rat aorta (helically cut strip)
T2 sequence (P23944 1-561): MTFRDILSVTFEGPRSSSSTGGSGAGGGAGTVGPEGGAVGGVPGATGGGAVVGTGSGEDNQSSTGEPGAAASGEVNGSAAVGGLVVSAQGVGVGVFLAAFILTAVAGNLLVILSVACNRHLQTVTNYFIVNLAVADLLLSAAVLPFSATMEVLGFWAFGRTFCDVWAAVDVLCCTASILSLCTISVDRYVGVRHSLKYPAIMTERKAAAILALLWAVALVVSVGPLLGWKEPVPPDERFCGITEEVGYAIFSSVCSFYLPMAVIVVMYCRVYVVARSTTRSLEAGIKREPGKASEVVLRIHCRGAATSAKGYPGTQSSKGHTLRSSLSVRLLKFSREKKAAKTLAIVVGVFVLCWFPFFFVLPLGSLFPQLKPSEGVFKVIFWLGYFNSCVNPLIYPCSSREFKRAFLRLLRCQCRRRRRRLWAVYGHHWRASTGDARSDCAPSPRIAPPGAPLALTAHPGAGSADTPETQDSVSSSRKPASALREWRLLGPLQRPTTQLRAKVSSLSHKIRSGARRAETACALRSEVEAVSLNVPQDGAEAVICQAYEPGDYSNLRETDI
Description: a) The α-adrenergic blocking activity of the compounds was tested using a helically cut rat aortic strip in a Krebs-Henselheit solution at 37° C., bubbled with a mixture of 95% O2 and 5% CO2. Norepinephrine induced contractions were detected isometrically. The compounds were added in cumulative doses and the relaxing activity was expressed in per cents of the maximum norepinephrine contraction.

[4] = system: rat peripheral venous thrombosis; test: Antithrombotic activity, rat peripheral venous thrombosis in closed abdominal part of vena cava; format: in vivo; settings: rats, read-out: statistically significant effective dose (mass of thrombi)
Description: The antithrombotic activity of the test compounds was established using the model of rat peripheral venous thrombosis in a closed abdominal part of vena cava. The thrombus was induced by intravenous administration of hypotonic solution of sodium chloride. The thrombus was freed 10 minutes after induction and weighted. The mass of thrombi in control animals was compared to the mass of thrombi of animals administered by the test compound. The statistically significant effective dose for compound VUFB 17951 was 0.5 mg/kg intravenously and 5 mg/kg orally and for the compound VUFB 17959 0.25 mg/kg and 1.0 mg/kg, respectively. The corresponding dose of a standard (Cilostazol, generic name, Merck index, 11th Edition, 2277) was 25 mg/kg orally.

intraocular pressure = test: Effect on the intraocular pressure; format: in vivo, rabbit; settings: rabbits, topical intraocular administration
[5] = p.o., 10.0 mg/kg, value 1 of 5 (heads 30/60/120/180 min)
[6] = p.o., 10.0 mg/kg, value 2 of 5 (heads 30/60/120/180 min)
[7] = p.o., 10.0 mg/kg, value 3 of 5 (heads 30/60/120/180 min)
[8] = p.o., 10.0 mg/kg, value 4 of 5 (heads 30/60/120/180 min)
[9] = p.o., 10.0 mg/kg, value 5 of 5 (heads 30/60/120/180 min)
[10] = p.o., 50.0 mg/kg, value 1 of 5 (heads 30/60/120/180 min)
[11] = p.o., 50.0 mg/kg, value 2 of 5 (heads 30/60/120/180 min)
[12] = p.o., 50.0 mg/kg, value 3 of 5 (heads 30/60/120/180 min)
[13] = p.o., 50.0 mg/kg, value 4 of 5 (heads 30/60/120/180 min)
[14] = p.o., 50.0 mg/kg, value 5 of 5 (heads 30/60/120/180 min)

IC50 (calcium channel): 16 µM
IC50 (α-adrenergic [3]): 25 µM
SMILES: Cc1ccccc1C(C#N)(CCCNCC1COc2ccccc2O1)C(C)C (racemic) [VUFB 17959, 5-(2,3-dihydro-1,4-benzodioxin-2-ylmethylamino)-2-isopropyl-2-(2-methylphenyl) valeronitrile]
decrease in number of postdecapitation contractions (α-adrenergic [1]): highly significant decrease in number of postdecapitation contractions
duration of action on opening pressure of the urinary bladder sphincter [2]: longer duration of action
lowering of the opening pressure of the urinary bladder sphincter ([2]; corresponding doses): lowered the opening pressure of the urinary bladder sphincter of rats in corresponding doses in the same extent as prazosin
decrease in diastolic blood pressure (DBP) (blood pressure; i.v., 1.0 mg/kg, 1 min): -51 per cents
decrease in systolic blood pressure (SBP) (blood pressure; i.v., 1.0 mg/kg, 1 min): -47 per cents
decrease in diastolic blood pressure (DBP) (blood pressure; i.v., 1.0 mg/kg, 5 min): -22 per cents
decrease in systolic blood pressure (SBP) (blood pressure; i.v., 1.0 mg/kg, 5 min): -23 per cents
decrease in diastolic blood pressure (DBP) (blood pressure; i.v., 1.0 mg/kg, 30 min): -21 per cents
decrease in systolic blood pressure (SBP) (blood pressure; i.v., 1.0 mg/kg, 30 min): -22 per cents
decrease in diastolic blood pressure (DBP) (blood pressure; i.v., 1.0 mg/kg, 60 min): -25 per cents
decrease in systolic blood pressure (SBP) (blood pressure; i.v., 1.0 mg/kg, 60 min): -14 per cents
decrease in diastolic blood pressure (DBP) (blood pressure; i.v., 1.0 mg/kg, 180 min): -18 per cents
decrease in systolic blood pressure (SBP) (blood pressure; i.v., 1.0 mg/kg, 180 min): -8 per cents
decrease in diastolic blood pressure (DBP) (blood pressure; i.v., 5.0 mg/kg, 1 min): -69 per cents
decrease in systolic blood pressure (SBP) (blood pressure; i.v., 5.0 mg/kg, 1 min): -60 per cents
decrease in diastolic blood pressure (DBP) (blood pressure; i.v., 5.0 mg/kg, 5 min): -39 per cents
decrease in systolic blood pressure (SBP) (blood pressure; i.v., 5.0 mg/kg, 5 min): -35 per cents
decrease in diastolic blood pressure (DBP) (blood pressure; i.v., 5.0 mg/kg, 30 min): -31 per cents
decrease in systolic blood pressure (SBP) (blood pressure; i.v., 5.0 mg/kg, 30 min): -26 per cents
decrease in diastolic blood pressure (DBP) (blood pressure; i.v., 5.0 mg/kg, 60 min): -29 per cents
decrease in systolic blood pressure (SBP) (blood pressure; i.v., 5.0 mg/kg, 60 min): -27 per cents
decrease in diastolic blood pressure (DBP) (blood pressure; i.v., 5.0 mg/kg, 180 min): -33 per cents
decrease in systolic blood pressure (SBP) (blood pressure; i.v., 5.0 mg/kg, 180 min): -25 per cents
decrease in diastolic blood pressure (DBP) (blood pressure; [5]): -2 per cents
decrease in systolic blood pressure (SBP) (blood pressure; [5]): -2 per cents
decrease in diastolic blood pressure (DBP) (blood pressure; [6]): 0 per cents
decrease in systolic blood pressure (SBP) (blood pressure; [6]): -3 per cents
decrease in diastolic blood pressure (DBP) (blood pressure; [7]): -3 per cents
decrease in systolic blood pressure (SBP) (blood pressure; [7]): -4 per cents
decrease in diastolic blood pressure (DBP) (blood pressure; [8]): -8 per cents
decrease in systolic blood pressure (SBP) (blood pressure; [8]): -1 per cents
decrease in diastolic blood pressure (DBP) (blood pressure; [9]): -10 per cents
decrease in systolic blood pressure (SBP) (blood pressure; [9]): +3 per cents
decrease in diastolic blood pressure (DBP) (blood pressure; [10]): -6 per cents
decrease in systolic blood pressure (SBP) (blood pressure; [10]): -9 per cents
decrease in diastolic blood pressure (DBP) (blood pressure; [11]): -12 per cents
decrease in systolic blood pressure (SBP) (blood pressure; [11]): -18 per cents
decrease in diastolic blood pressure (DBP) (blood pressure; [12]): -18 per cents
decrease in systolic blood pressure (SBP) (blood pressure; [12]): -26 per cents
decrease in diastolic blood pressure (DBP) (blood pressure; [13]): -18 per cents
decrease in systolic blood pressure (SBP) (blood pressure; [13]): -29 per cents
decrease in diastolic blood pressure (DBP) (blood pressure; [14]): -18 per cents
decrease in systolic blood pressure (SBP) (blood pressure; [14]): -31 per cents
minimal effective dose ([4]; iv, intravenously): 0.25 mg/kg
minimal effective dose ([4]; po, orally): 1 mg/kg
lowering of the intraocular pressure (intraocular pressure): lowered significantly the intraocular pressure
